Measurements from publication PMC9081267 (Nature microbiology, 2022).

The molecules below were run against T1, bovine pancreatic trypsin (Bos taurus, UniProt P00760) (assay: fluorogenic AMC substrate hydrolysis, kinetic read, non-linear regression).
T1 sequence (P00760 24-246): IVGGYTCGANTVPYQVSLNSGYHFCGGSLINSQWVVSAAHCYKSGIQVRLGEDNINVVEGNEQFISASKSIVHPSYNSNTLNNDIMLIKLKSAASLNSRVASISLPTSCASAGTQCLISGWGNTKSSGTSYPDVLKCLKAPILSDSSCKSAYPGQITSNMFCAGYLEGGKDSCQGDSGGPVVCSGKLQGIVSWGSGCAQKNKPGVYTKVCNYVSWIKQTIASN
Format: biochemical

IC50 [µM] | Compound
3.86 | CCC1=C(C)/C(=C/c2[nH]c(Cc3[nH]c(/C=C4\NC(=O)C(C)=C4CC)c(C)c3CCC(=O)O)c(CCC(=O)O)c2C)NC1=O [Mesobilirubin]
3.48 | C=CC1=C(C)/C(=C/c2[nH]c(Cc3[nH]c(/C=C4\NC(=O)C(C)=C4C=C)c(C)c3CCC(=O)O)c(CCC(=O)O)c2C)NC1=O [Unconjugated Bilirubin]
4.83 | CCC1=C(C)C(Cc2[nH]c(Cc3[nH]c(CC4NC(=O)C(C)=C4CC)c(C)c3CCC(=O)O)c(CCC(=O)O)c2C)NC1=O (stereo not shown) [Urobilinogen]
12.7 | C=CC1=C(C)/C(=C/C2=NC(=C\c3[nH]c(/C=C4\NC(=O)C(C)=C4C=C)c(C)c3CCC(=O)O)/C(CCC(=O)O)=C2C)NC1=O [Biliverdin]
